According to patent US20100130476A1, “COMPOUNDS THAT INDUCE PANCREATIC BETA-CELL EXPANSION” (The Scripps Research Institute, priority 2008, published 2010):

Assays:
[1] = tested on: growth-arrested R7T1 β cells; experiment: R7T1 β-cell proliferation, CellTiter Glo assay (high-throughput screen and follow-up); assay type: cell-based, mouse
Method: R7T1 β-cells are expanded in growth medium (DMEM with 15% horse serum and 2.5% FBS) in the presence of 10 μg/ml doxycycline. (3TC-tet cells are expanded in growth medium (DMEM with 15% horse serum and 2.5% FBS) in the absence of 10 μg/ml doxycycline. Hamster HIT-T15 β-cells are grown in F12 medium with 15% horse serum and 2.5% FBS. MIN6 cells are cultured in DMEM with 15% FBS. HEK293 cells are grown according to instructions from ATCC (http://www.atcc.org/).
R7T1 β-cells are expanded in large quantities in growth medium in the presence of 10 μg/ml doxycycline and then are growth arrested by removal of doxycycline for one week. For the primary screen, growth-arrested cells are plated onto 384- or 1536-well plates in growth medium without doxycycline at a density of 4000 cells/well in 384-well plate or 1000 cells/well in 1536-well plate in an automated high-throughput screening platform (designated as Day 0). […] For data analysis, the median of a plate is calculated and the activity of each well is the signal/median of the plate. A signal in any well over 1.5 of the median is regarded as a primary hit. For the reconfirmation screen, growth-arrested R7T1 cells are plated onto 384-well plates and screened against all primary hits in quadruplicate. To eliminate tetracycline mimetics among all reconfirmed primary hits, βTC-tet cells are plated onto 384-well plates at a density of 2000 cells/well in growth medium in the presence of 10 μg/ml doxycycline, and 1.25 μM compound is added after overnight incubation and refreshed 4 days later. The effects on β-cell replication are then determined at Day 8 using the CellTiter Glo assay system. Any compound that increases the readings more than 1.5 fold is regarded as a hit.
SV40 T antigen (TAg) oncoprotein under the control of the Tet-On system was used to immortalize mouse β cells so that these engineered β cells proliferate when TAg is induced in the presence of tetracycline (Tet), but undergo growth arrest upon withdrawal of Tet (see, Efrat S, et al., Proc. Natl. Acad. Sci. USA 92:3576-3580 (1995); Fleischer N, et al, Diabetes 47:1419-1425 (1998); and Milo-Landesman D, et al., Cell Transplant. 10:645-650 (2001)). Although not a true mimic of in vivo quiescent β cells, this system should allow us to identify small molecules that are able to induce reentry into cell cycle and proliferation of growth-arrested cells. Indeed, these engineered cells express high levels of β-cell signature markers, including insulin 1, insulin 2, and Pdx1, and are able to secrete insulin and restore and maintain euglycemia in STZ-treated diabetic mice when induced to growth arrest and transplanted (see, Efrat S, et al., supra; and Milo-Landesman D, et al., supra). A total of ≈850,000 compounds were screened with an automated high-throughput screening platform for their ability to induce the proliferation of growth-arrested β cells in either a 384- or 1,536-well plate format. In the primary screen, proliferation was assayed by using a luminescent assay measuring intracellular ATP content, which is directly proportional to viable cell number (see, Materials and Methods). To rule out any possible Tet mimetics that induce the proliferation of β cells through the induction of SV40 TAg expression, the Tet-Off immortalized β-cell line βTC-Tet was used for a counterscreen.

[2] = tested on: Super (8×) TOPFlash reporter; experiment: Super (8×) TOPFlash Wnt reporter in HEK293 cells; assay type: cell-based
Method: (A) Chemical structures of 5-thiophene pyrimidines. […] Relative luminescence unit (RLU) was measured by CellTiter-Glo assay after 7-day incubation of growth-arrested R7T1 β cells with 1a, which was added at day 0 and refreshed at day 4; experiments were performed in quadruplicate. All data in this paper are presented as mean±SD, unless otherwise specified. (C) Dose-dependent effects of 1a on the activation of Super (8×) TOPFlash reporter. HEK293 cells transfected with Super (8×) TOPFlash reporter were treated with 1a at the indicated concentrations 24 h after transfection. Luciferase activity was measured 48 h after compound treatment. (D and E) The proliferative effect of 1a on rat primary β cells. (D) After incubation for 72 h with 2 μM 1a, replicating β cells were identified by double-immunofluorescence staining by using anti-C-peptide antibody to mark β cells (green) and antibody against Ki-67, a proliferation marker (red). Nuclear DNA was stained with DAPI (blue). (Scale bar, 10 μm.) (E) The percentage of Ki-67-positive cells of all C-peptide-positive cells, which corresponds to the fraction of replicating β cells. The number of proliferating primary β cells increased after incubation for 72 h in the presence of 2 μM 1a compared with DMSO control: 1a at 2 μM increases the replicating β cells ≈2-fold. (F) Compound 1a stimulates the translocation of β-catenin into the nucleus. Nuclear β-catenin accumulation (green arrows) was increased in 10 μM 1a-treated HEK293 cells; in DMSO-treated control cells, β-catenin staining is weak and appears to concentrate at the cell surface. […] CellTiter-Glo activity was measured 7 days after compound treatment.

SMILES	expansion of the pancreatic β-cell population ([1]; high-throughput screen, CellTiter Glo at Day 8, screen concentration 1.25 μM)	effect on 1a-stimulated β-cell proliferation ([1]; 60 μM Sulindac with 10 μM 1a, CellTiter-Glo after 7 days)	effect on 1a-stimulated Wnt activation [2]
COc1ccc(CCNc2nc(N3CCCC3CO)nc3ccccc23)cc1 (stereo not drawn) [Example 9, (1-(4-(4-methoxyphenethylamino)quinazolin-2-yl)pyrrolidin-2-yl)methanol]	3 fold		
CC1=C(CC(=O)O)c2cc(F)ccc2/C1=C\c1ccc([S+](C)[O-])cc1 (stereo not drawn) [Sulindac]		abolished	abolished
